Data published in article PMC11904993, “Humanized Candida and NanoBiT Assays Expedite Discovery of Bdf1 Bromodomain Inhibitors With Antifungal Potential” (Advanced Science, 2025).
Several values for one entry are separate records, joined by “and”; a condition that tells them apart may be missing. Identical values can stand only once. Like-named read-outs stand apart in the source and are kept apart here.

Assays:
CgBdf1 BD1 [1] = target: CgBdf1 BD1 (Candida glabrata, UniProt Q6FWV7); assay: HTRF assay, inhibition of H4ac4 peptide binding; parameters: species or system C. glabrata
CgBdf1 BD1 (Candida glabrata, UniProt Q6FWV7), sequence (Q6FWV7 entry or part of it): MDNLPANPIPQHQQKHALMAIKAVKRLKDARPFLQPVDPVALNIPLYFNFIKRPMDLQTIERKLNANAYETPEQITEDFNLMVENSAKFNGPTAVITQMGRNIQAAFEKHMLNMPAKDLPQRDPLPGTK

CgBdf1 BD2 [2] = target: CgBdf1 BD2 (Candida glabrata, UniProt Q6FWV7); assay: biochemical; type: binding, C. glabrata
CgBdf1 BD2 (Candida glabrata, UniProt Q6FWV7), sequence (Q6FWV7 entry or part of it): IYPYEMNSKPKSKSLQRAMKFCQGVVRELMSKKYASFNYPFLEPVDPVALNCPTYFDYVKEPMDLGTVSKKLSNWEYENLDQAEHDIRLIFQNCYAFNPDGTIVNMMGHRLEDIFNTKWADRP

human Brd4 BD1 = human Brd4 BD1 (Homo sapiens, UniProt O60885); assay: HTRF assay, inhibition of H4ac4 peptide binding
human Brd4 BD2 = target: T1, human Brd4 BD2 (Homo sapiens, UniProt O60885); assay: HTRF assay, inhibition of H4ac4 peptide binding; conditions: Table S3; estimate, preliminary single-replicate HTRF assay; read-out: IC50 Brd4 BD2
T1 construct: GST‐tagged BD2 (residues 349–460) from human Brd4 (UniProt ID O60885); purchased Reaction Biology Corp

CgBdf1 BD1 [3] = assay: Histone peptide array assay; conditions: for Normalized (0 to 100%), WT / Normalized (0 to 100%), YF mutant: mean of the two raw values
Protocol: (§1) The array was prepared as described in the manufacturer's instructions. […] The array was then washed three times with binding buffer. Anti‐GST antibody (GE Healthcare) was used for the detection of GST‐tagged bromodomains.

CgBdf1 BD2 [4] = assay: Histone peptide array assay; conditions: for Normalized (0 to 100%), WT / Normalized (0 to 100%), YF mutant: mean of the two raw values
Protocol: as §1

[5] = system: C. glabrata strains expressing WT and mutant Bdf1; assay: Growth inhibition in liquid media, C. glabrata lab strains; conditions: Nakaseomyces glabratus, single experiments Exp1-3
Protocol: Growth on Liquid Media with C. glabrata Lab Strains: Cells were grown at 30 °C in SC+M+C‐U medium (SC medium with 5 mM methionine, 0.25 mM cysteine, without uracil) to an OD600 of 0.5–0.8. […] Plates were incubated at 30 °C and OD600 was measured using a Multiskan FC Microplate Photometer (Thermo Fisher).

[6] = peptide array signal, CgBdf1 BD1 WT, first replicate column
[7] = peptide array signal, CgBdf1 BD1 WT
[8] = peptide array signal, CgBdf1 BD1 WT, second replicate column
[9] = peptide array signal, CgBdf1 BD1 YF mutant, first replicate column
[10] = peptide array signal, CgBdf1 BD1 YF mutant
[11] = peptide array signal, CgBdf1 BD1 YF mutant, second replicate column
[12] = peptide array signal, CgBdf1 BD2 WT, first replicate column
[13] = peptide array signal, CgBdf1 BD2 WT
[14] = peptide array signal, CgBdf1 BD2 WT, second replicate column
[15] = peptide array signal, CgBdf1 BD2 YF mutant, first replicate column
[16] = peptide array signal, CgBdf1 BD2 YF mutant
[17] = peptide array signal, CgBdf1 BD2 YF mutant, second replicate column

Row | SMILES | Raw data, WT (CgBdf1 BD1 [3]; [6]) | Normalized (0 to 100%), WT (CgBdf1 BD1 [3]; [7]) [%] | Raw data, WT (CgBdf1 BD1 [3]; [8]) | Raw data, YF mutant (CgBdf1 BD1 [3]; [9]) | Normalized (0 to 100%), YF mutant (CgBdf1 BD1 [3]; [10]) [%] | Raw data, YF mutant (CgBdf1 BD1 [3]; [11]) | Raw data, WT (CgBdf1 BD2 [4]; [12]) | Normalized (0 to 100%), WT (CgBdf1 BD2 [4]; [13]) [%] | Raw data, WT (CgBdf1 BD2 [4]; [14]) | Raw data, YF mutant (CgBdf1 BD2 [4]; [15]) | Normalized (0 to 100%), YF mutant (CgBdf1 BD2 [4]; [16]) [%] | Raw data, YF mutant (CgBdf1 BD2 [4]; [17]) | also measured
1 | COc1ccc(CNc2nc(-c3ccccc3)nnc2C)cc1 [Compound 10] | – | – | – | – | – | – | – | – | – | – | – | – | IC50 (CgBdf1 BD1 [1]; Fig 2C original data, analogs of 24, single experiments Exp1-3, read-out: pIC50 CgBD1 (converted)): 2280 nM and 2580 nM and 1860 nM; IC50 (CgBdf1 BD1 [1]; Table S3, estimate, preliminary single-replicate HTRF assay, read-out: IC50 CgBdf1 BD1): 5000 nM; IC50 (CgBdf1 BD2 [2]; Fig 2C original data, analogs of 24, single experiments Exp1-3, read-out: pIC50 CgBD2 (converted)): > 100 µM; IC50 (CgBdf1 BD2 [2]; Table S3, estimate, preliminary single-replicate HTRF assay, read-out: IC50 CgBdf1 BD2): > 20 µM; IC50 (human Brd4 BD1): > 20 µM; IC50 (human Brd4 BD2): > 20 µM; Normalized (0 to 100%), WT, Average (CgBdf1 BD1 [3]; CgBdf1 BD1 WT, normalized peptide array signal): 2.21%; Raw data, WT, Left (CgBdf1 BD1 [3]; CgBdf1 BD1 WT, peptide array signal, left replicate): 0.006616; Raw data, WT, Rigt (CgBdf1 BD1 [3]; CgBdf1 BD1 WT, peptide array signal, right replicate): 0.03749; Normalized (0 to 100%), YF mutant, Average (CgBdf1 BD1 [3]; CgBdf1 BD1 YF mutant, normalized peptide array signal): 0.293%; Raw data, YF mutant, Left (CgBdf1 BD1 [3]; CgBdf1 BD1 YF mutant, peptide array signal, left replicate): 0.003085; Raw data, YF mutant, Right (CgBdf1 BD1 [3]; CgBdf1 BD1 YF mutant, peptide array signal, right replicate): 0.002776; Normalized (0 to 100%), WT, Average (CgBdf1 BD2 [4]; CgBdf1 BD2 WT, normalized peptide array signal): 0.608%; Raw data, WT, Left (CgBdf1 BD2 [4]; CgBdf1 BD2 WT, peptide array signal, left replicate): 0.004055; Raw data, WT, Rigt (CgBdf1 BD2 [4]; CgBdf1 BD2 WT, peptide array signal, right replicate): 0.00811; Normalized (0 to 100%), YF mutant, Average (CgBdf1 BD2 [4]; CgBdf1 BD2 YF mutant, normalized peptide array signal): 0.859%; Raw data, YF mutant, Left (CgBdf1 BD2 [4]; CgBdf1 BD2 YF mutant, peptide array signal, left replicate): 0.01319; Raw data, YF mutant, Right (CgBdf1 BD2 [4]; CgBdf1 BD2 YF mutant, peptide array signal, right replicate): 0.003988; EC50 ([5]; read-out: pEC50 (WT BDF1), Fig 2D (converted), WT C. glabrata): 180 µM; EC50 ([5]; read-out: pEC50 growth inhibition, Fig 2C (converted), strain BD1 Y-F): 149 µM
2 | Cc1ccc(C(=N)NN)cc1 [Compound 66] | 0.007561 | 2.32 | 0.03875 | 0.003085 | 0.308 | 0.003085 | 0.007798 | 0.717 | 0.00655 | 0.005521 | 0.276 | 0 | –
3 | Cc1ccc(-c2nc(=O)c(C)n[nH]2)cc1 [Compound 67] | 0.09956 | 16 | 0.2253 | 0.002159 | 0.308 | 0.00401 | 0.06082 | 11 | 0.1541 | 0.007975 | 0.613 | 0.004294 | –
4 | Cc1ccc(-c2nnc(C)c(Cl)n2)cc1 [Compound 68] | 0.003466 | 2.19 | 0.04033 | 0.003085 | 0.355 | 0.00401 | 0.004679 | 0.624 | 0.007798 | 0.004601 | 0.23 | 0 | –
